Columns and labels:
Cln2^(−/−) mice [1] = test: Survival study of Cln2(−/−) mice treated orally with gem; assay type: in vivo, mouse; details: gem 7.5 mg/kg body weight/day via gavage from 4 weeks of age
Text: Animal maintaining and experiments were in accordance with National Institute of Health guidelines and were approved by the Institutional Animal Care and Use committee (IACUC) of the Rush University of Medical Center, Chicago, Ill. […] However, if any mouse came to the moribund stage, it was decapitated after anesthesia with ketamine/xylazine injectables. Conditions for moribund were as follows: central nervous system disturbance (head tilt, seizures, tremors, circling, spasticity, and paresis); inability to remain upright; evidence of muscle atrophy; chronic diarrhea or constipation; rough coat and distended abdomen; preading area of alopecia caused by disease; coughing, rales, wheezing and nasal discharge; distinct jaundice and/or paleness (anemia); markedly discolored urine, polyuria or anuria; frank bleeding from any orifice; persistent self-induced trauma. Cln2^(+/−) animals were kindly provided by Dr. Peter Lobel (Center for Advanced Biotechnology and Medicine, Robert Wood Johnson Medical School, Piscataway, N.J., USA). These animals were inbred and subsequent generations were screened by RTPCR to further obtain Cln2^(+/+), Cln2^(+/−) and Cln2^(−/−) strains. […]
All values are expressed as means±SEM. […]

Cln2^(−/−) mice [2] = test: Locomotor activity (Digiscan Monitor open field) in Cln2(−/−) mice; assay type: in vivo, mouse; details: oral gem 7.5 mg/kg/day, after 8 weeks of treatment
Method: (§1) Age- and sex-matched Cln2^(+/+) mice from the same background were used as wild type (WT) controls and Cln2^(−/−) animals were used in different treatment groups. Gem (7.5 mg/kg body wt/day) was dissolved in DMSO followed by dilution in 0.1% methyl cellulose (MeC). Cln2^(−/−) mice were either not fed (Un-untreated group), gavaged with 0.1% MeC (vehicle treated group) or gavaged with gem (gem-treated group) for 8 weeks for biochemical studies. Similar treatment regimen was followed as long as the animals are not considered to be morbid as described above for survival study. Here, 40 mice (20 male and 20 female) were used per group and animals (4 weeks old) were randomly selected for any group.
Locomotor activities were measured in Cln2^(−/−) mice after 8 weeks of gem treatment using Digiscan Monitor (Omnitech Electronics, Inc., Columbus, Ohio) as described by us (Khasnavis & Pahan 2014, Ghosh et al. 2007, Ghosh et al. 2009). This Digiscan Monitor records basic locomotion parameters, such as horizontal activity, total distance traveled, movement time, rest time, etc. as well as stereotypy, behavior that is directly controlled by striatum. […] DIGISCAN software was used to analyze and store horizontal and vertical activity data, which were monitored automatically by infra-red beams. […]

[3] = system: subunit c of mitochondrial ATP synthase (SCMAS); test: Detection of storage materials by immunofluorescence of subunit c in motor cortex; assay type: in vivo, mouse; details: Cln2(−/−) mice, oral gem 7.5 mg/kg/day, 8 weeks
Method: as §1
(§2) After 8 weeks of treatment, mice were sacrificed and their brains fixed, embedded, and processed. […] The samples were mounted and observed under Olympus IX41 fluorescence microscope. […] After acquiring images under 20×objective lens, images were further analyzed as follows. […] Once the area of the image was measured, touch counting program was applied to count number of fluorescent signals using simple mouse click method. […]
It was performed by monitoring subunit c of mitochondrial ATP synthase (SCMAS) by immunofluorescence. […] SCMAS-associated fluorescence intensity was quantified by using the Olympus Microsuite V software. […]

NeuN-positive neurons = test: Neuronal apoptosis, NeuN/TUNEL double-labeling of brain sections; assay type: in vivo, mouse; details: Cln2(−/−) mice, oral gem 7.5 mg/kg/day, 8 weeks
Method: Reagents for TUNEL assay on frozen brain sections were purchased from EMD Millipore (Billerica, Mass.) and experiments were performed according to manufacturer's protocol. Blocking buffer and secondary antibodies for immune blot (IB) (IRDye 700 or IRDye 800—labelled) were purchased from Licor (Lincoln, Nebr.). Secondary antibodies for immunohistochemistry (IHC) (FITC or Cy5—labeled) were purchased from Jackson ImmunoResearch (West Grove, Pa.).
Age- and sex-matched Cln2^(+/+) mice from the same background were used as wild type (WT) controls and Cln2^(−/−) animals were used in different treatment groups. Gem (7.5 mg/kg body wt/day) was dissolved in DMSO followed by dilution in 0.1% methyl cellulose (MeC). Cln2^(−/−) mice were either not fed (Un-untreated group), gavaged with 0.1% MeC (vehicle treated group) or gavaged with gem (gem-treated group) for 8 weeks for biochemical studies. […]
as §2

phospho-BAD (P-BAD) = test: Immunoblot of brain homogenates for phospho-BAD; assay type: in vivo, mouse; details: Cln2(−/−) mice, oral gem 7.5 mg/kg/day, 8 weeks
Method: as §1
(§3) After 8 weeks of treatment, mice were sacrificed and cortex and striatum regions were isolated, homogenized in RIPA buffer (150 mM sodium chloride, 1.0% NP-40 or Triton X-100, 0.5% sodium deoxycholate, 0.1% SDS (sodium dodecyl sulphate), 50 mM Tris, pH 8.0), supernatant was taken and protein was estimated by BioRad protein assay. Equal amounts of protein from the tissue extract were separated in 12% or 15% Bis-Tris gels and proteins were transferred onto a nitrocellulose membrane (Bio-Rad) using the Thermo-Pierce Fast Semi-Dry Blotter (Corbett et al. 2015, Roy et al. 2015, Roy et al. 2016). […]

SOCS3 [4] = test: Western blot of motor cortex and striatum extracts for SOCS3; assay type: in vivo, mouse; details: Cln2(−/−) mice, 8 weeks of oral gem; both motor cortex and striatum
Method: as §1, §3

IL-1Ra [5] = test: Western blot of motor cortex and striatum extracts for IL-1Ra; assay type: in vivo, mouse; details: Cln2(−/−) mice, 8 weeks of oral gem; both motor cortex and striatum
Method: as §1, §3

SOCS3 [6] = test: Double-label immunofluorescence of striatal sections for SOCS3 (GFAP, Iba1); assay type: in vivo, mouse; details: Cln2(−/−) mice, 8 weeks of oral gem, seen in astrocytes, microglia and other brain cells
Method: as §1
as §2, with “processed. Sections (30 μm) were made from different brain regions (motor cortex and striatum) using a Leica Cryostat and immunofluorescence staining on fresh frozen sections was performed as described (Corbett et al. 2015, Roy et al. 2015, Roy et al. 2016).” for “processed.”

IL-1Ra [7] = test: Double-label immunofluorescence of striatal sections for IL-1Ra (GFAP, Iba1); assay type: in vivo, mouse; details: Cln2(−/−) mice, 8 weeks of oral gem, in both astrocytes and microglia
Method: as §1
as §2, with “processed. Sections (30 μm) were made from different brain regions (motor cortex and striatum) using a Leica Cryostat and immunofluorescence staining on fresh frozen sections was performed as described (Corbett et al. 2015, Roy et al. 2015, Roy et al. 2016).” for “processed.”

astroglia or microglia = test: Astroglia and microglia in brain sections (GFAP, Iba1 immunofluorescence); assay type: in vivo, mouse; details: Cln2(−/−) mice, after gem treatment; motor cortex and striatum
Method: as §1
as §2, with “processed. Sections (30 μm) were made from different brain regions (motor cortex and striatum) using a Leica Cryostat and immunofluorescence staining on fresh frozen sections was performed as described (Corbett et al. 2015, Roy et al. 2015, Roy et al. 2016).” for “processed.”

[8] = after oral administration; cited from earlier work
[9] = cited from earlier work

Cc1ccc(C)c(OCCCC(C)(C)C(=O)O)c1 [gem, 5-(2,5-dimethylphenoxy)-2,2-dimethylpentanoic acid]
increase of the lifespan (Cln2^(−/−) mice [1]): more than 2 months | survived until (Cln2^(−/−) mice [1]; untreated all died within 137 days, vehicle within 150 days): 204 days | locomotor activities (horizontal activity, movement time, number of movement, total distance, stereotypy counts, rest time) (Cln2^(−/−) mice [2]): significantly improved locomotor activities | SCMAS storage material in the motor cortex [3]: significant decrease in SCMAS | neuronal apoptosis (NeuN+TUNEL+ cells) in the motor cortex (NeuN-positive neurons; motor cortex): strongly inhibited neuronal apoptosis | neuronal apoptosis (NeuN+TUNEL+ cells) in the striatum (NeuN-positive neurons; striatum): reduced neuronal apoptosis | level of P-BAD in the motor cortex (phospho-BAD (P-BAD); motor cortex): upregulation of P-BAD | level of P-BAD in the striatum (phospho-BAD (P-BAD); striatum): increased the level of P-BAD | SOCS3 level, Western blot (SOCS3 [4]): increase in SOCS3 | IL-1Ra level, Western blot (IL-1Ra [5]): increase | SOCS3 in the striatum, immunofluorescence (SOCS3 [6]): marked increase in SOCS3 | IL-1Ra in the striatum, immunofluorescence (IL-1Ra [7]): restoration and/or upregulation of IL-1Ra | number of astroglia or microglia (astroglia or microglia): did not observe any reduction in either astroglia or microglia | entry into the CNS [8]: enters into the CNS | tolerability ([9]; human and animal studies): well tolerated | toxicity ([9]; oral drug): fairly nontoxic
